A short description of experiment [1]: viability of HCT116 lacking mutant beta-catenin – cell-based, human colon tumor, dose response (AID 1045).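 Also: HCT116 colon tumor cells with beta catenin knocked out; cells exposed to compound for 60 hours.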 It is filed as functional.
A short description of experiment [2]: viability of PTEN-deleted HCT116 cells – cell-based, HCT116 PTEN knockout, dose response (AID 1047).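 Also: HCT116 colon tumor cells with PTEN knocked out; cells exposed to compound for 60 hours before readout; potency for loss of cell viability measured by luminescence.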 The class given is functional.
A further experiment concerns A-375. Description: MITF: Counter assay: A375 proliferation Measured in Cell-Based System Using Plate Reader - 2084-03_Inhibitor_Dose_DryPowder_Activity. [Related pubchem assays (depositor defined):AID488944]. It is filed as functional. The following applies: Homo sapiens.
The target in experiment [3] is T1, Microphthalmia-associated transcription factor (Homo sapiens, UniProt O75030).
T1 sequence (O75030 whole entry): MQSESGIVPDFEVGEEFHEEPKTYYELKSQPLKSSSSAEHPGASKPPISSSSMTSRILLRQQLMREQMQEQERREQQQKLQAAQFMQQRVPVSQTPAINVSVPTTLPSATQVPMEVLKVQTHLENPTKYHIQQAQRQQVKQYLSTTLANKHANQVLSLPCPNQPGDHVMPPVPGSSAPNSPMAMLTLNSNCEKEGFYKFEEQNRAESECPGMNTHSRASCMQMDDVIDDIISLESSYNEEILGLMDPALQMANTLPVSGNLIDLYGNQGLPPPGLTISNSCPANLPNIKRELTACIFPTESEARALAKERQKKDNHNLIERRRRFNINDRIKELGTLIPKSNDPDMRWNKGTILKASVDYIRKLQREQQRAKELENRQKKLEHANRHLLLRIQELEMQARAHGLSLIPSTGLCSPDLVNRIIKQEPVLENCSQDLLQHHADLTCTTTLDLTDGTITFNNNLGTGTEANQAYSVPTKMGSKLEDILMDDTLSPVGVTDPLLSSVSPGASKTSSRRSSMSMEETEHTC
Description: reducers of TRPM1 reporter luminescence, concentration series – cell-based, SK-MEL-5, cherry-picked, set 3, MITF inhibitor project, dose response (AID 493073).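 Also: SK-MEL-5 melanoma cells with luciferase driven by the MITF target TRPM1 promoter.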 It is filed as functional.

A further experiment relates to Streptococcus. Description: GAS UMAA2166 growth inhibition – luminescence, BacTiterGlo, counter-screen for streptokinase expression inhibitor project, dose response (AID 1915).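 Also: potency for reduction of bacterial viability or growth.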 It is filed as functional, organism-based.
In experiment [4] the target is Intestinal-type alkaline phosphatase (Homo sapiens, UniProt P09923). Description: inhibition of human intestinal alkaline phosphatase – biochemical, dose response (AID 488876). It is filed as functional.
Chain of Intestinal-type alkaline phosphatase (Homo sapiens, UniProt P09923) (P09923 whole entry): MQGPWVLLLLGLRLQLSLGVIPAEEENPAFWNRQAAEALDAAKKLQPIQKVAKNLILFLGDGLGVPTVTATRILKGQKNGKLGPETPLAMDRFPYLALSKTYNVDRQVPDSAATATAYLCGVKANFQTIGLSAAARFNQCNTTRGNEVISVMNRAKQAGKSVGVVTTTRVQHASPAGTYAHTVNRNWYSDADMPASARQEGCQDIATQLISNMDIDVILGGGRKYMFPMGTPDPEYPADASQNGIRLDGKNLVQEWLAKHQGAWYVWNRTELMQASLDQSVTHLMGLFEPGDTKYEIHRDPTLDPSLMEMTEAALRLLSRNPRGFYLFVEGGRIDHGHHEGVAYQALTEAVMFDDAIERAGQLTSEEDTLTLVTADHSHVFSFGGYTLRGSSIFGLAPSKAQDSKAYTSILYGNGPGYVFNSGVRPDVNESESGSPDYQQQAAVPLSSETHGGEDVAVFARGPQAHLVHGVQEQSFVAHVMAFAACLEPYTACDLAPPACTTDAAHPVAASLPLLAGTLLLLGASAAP
In a further experiment the target is T2, Streptokinase A (Streptococcus pyogenes serotype M1, UniProt P10520).
T2 sequence (P10520 whole entry): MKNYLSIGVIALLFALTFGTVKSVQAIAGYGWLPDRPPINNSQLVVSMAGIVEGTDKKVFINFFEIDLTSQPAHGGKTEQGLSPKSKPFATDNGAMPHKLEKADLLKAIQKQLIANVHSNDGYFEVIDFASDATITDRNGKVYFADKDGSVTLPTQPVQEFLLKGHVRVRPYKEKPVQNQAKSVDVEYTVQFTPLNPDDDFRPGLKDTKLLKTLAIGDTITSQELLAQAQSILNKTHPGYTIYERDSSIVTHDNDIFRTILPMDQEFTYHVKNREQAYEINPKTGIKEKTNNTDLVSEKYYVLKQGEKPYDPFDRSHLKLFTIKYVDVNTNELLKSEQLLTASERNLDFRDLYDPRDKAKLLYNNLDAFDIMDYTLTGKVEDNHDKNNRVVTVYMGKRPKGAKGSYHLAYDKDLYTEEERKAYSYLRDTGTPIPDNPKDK
The experiment in a line: viability-normalized secreted streptokinase activity reduction – plasminogen activation absorbance, OD405, dose response (AID 1914).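 Also: secreted streptokinase activity via plasminogen activation per viability signal from cell pellet.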 The class given is functional, Streptococcus pyogenes M1 GAS.

Experiment [5] relates to Streptococcus sp. 'group A'. The experiment in a line: Streptococcus pyogenes SK(-)GAS viability under kanamycin – luminescence, BacTiterGlo, confirmation, counter-screen for streptokinase expression inhibitor project, dose response (AID 1900). The class given is functional, organism-based. A general note: Counterscreens check selectivity or assay interference.
For experiment [6], the target named is T3, Alkaline phosphatase, tissue-nonspecific isozyme (Homo sapiens, UniProt P05186).
T3 sequence (P05186 whole entry): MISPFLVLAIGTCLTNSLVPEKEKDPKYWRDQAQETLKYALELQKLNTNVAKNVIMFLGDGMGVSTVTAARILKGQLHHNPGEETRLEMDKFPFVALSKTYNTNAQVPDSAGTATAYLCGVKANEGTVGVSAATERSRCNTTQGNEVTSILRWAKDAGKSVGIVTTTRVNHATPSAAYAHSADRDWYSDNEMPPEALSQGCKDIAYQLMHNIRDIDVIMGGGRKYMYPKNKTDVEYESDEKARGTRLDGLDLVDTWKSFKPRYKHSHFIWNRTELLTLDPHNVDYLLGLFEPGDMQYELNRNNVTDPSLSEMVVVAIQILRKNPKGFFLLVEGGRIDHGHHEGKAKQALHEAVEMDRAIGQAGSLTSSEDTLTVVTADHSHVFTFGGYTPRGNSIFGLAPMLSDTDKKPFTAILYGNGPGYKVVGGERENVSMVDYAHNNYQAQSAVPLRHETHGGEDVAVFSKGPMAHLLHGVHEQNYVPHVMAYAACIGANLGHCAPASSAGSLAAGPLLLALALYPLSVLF
Description: TNAP enzyme inhibition by screening hits, dose response, selectivity assay for mouse IAP inhibitor project, biochemical, human TNAP, uHTS hits (AID 488906). It is filed as functional.

The target of experiment [7] is Intestinal-type alkaline phosphatase (Mus musculus, UniProt P24822). Description: PubChem AID 488785. The class given is functional.
Chain of Intestinal-type alkaline phosphatase (Mus musculus, UniProt P24822) (P24822 whole entry): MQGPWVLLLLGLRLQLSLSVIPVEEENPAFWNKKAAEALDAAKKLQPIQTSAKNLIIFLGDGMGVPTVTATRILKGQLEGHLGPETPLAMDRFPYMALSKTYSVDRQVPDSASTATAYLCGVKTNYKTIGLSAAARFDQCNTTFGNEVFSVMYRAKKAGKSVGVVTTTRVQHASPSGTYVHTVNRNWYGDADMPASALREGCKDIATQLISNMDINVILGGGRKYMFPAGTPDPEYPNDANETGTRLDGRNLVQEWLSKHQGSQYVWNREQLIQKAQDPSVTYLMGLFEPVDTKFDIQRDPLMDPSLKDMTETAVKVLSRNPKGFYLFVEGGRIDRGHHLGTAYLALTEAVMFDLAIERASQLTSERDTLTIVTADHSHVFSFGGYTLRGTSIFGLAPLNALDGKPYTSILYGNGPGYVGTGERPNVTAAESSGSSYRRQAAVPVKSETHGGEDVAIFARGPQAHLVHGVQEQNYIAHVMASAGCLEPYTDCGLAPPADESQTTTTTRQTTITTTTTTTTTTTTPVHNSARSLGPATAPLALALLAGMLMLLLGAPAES
Experiment [8] in a line: HEK-293T viability loss after treatment – luminescence, T-cell screen hits, cytotoxicity control for TCR NF-kB inhibitor project, dose response (AID 489026).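 Also: cells exposed to compound about 14 hours before the viability readout.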 It is filed as functional, cell-based.
A short description of experiment [9]: Trypanosoma cruzi growth suppression in host cells – NIH3T3 host cells, beta-gal luminescence, confirmation (AID 2044).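 Also: intracellular parasites grown in NIH/3T3 mouse fibroblasts as host cells; luminescent beta-galactosidase reporter signal from transgenic T. cruzi replicating inside host cells; inhibitors lower the luminescence signal.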 The class given is functional, cell-based.
A short description of experiment [10]: Luminescence Cell-Based Secondary HTS screen to identify cytotoxic compounds of NIH3T3 cells. [Related pubchem assays: 1885, 1968 ]. It is filed as functional.
Experiment [11] in a line: Luminescence Cell-Based/Microorganism Confirmation at Dose of Inhibitors of Trypanosoma cruzi Infection. [Related pubchem assays: 1885, 1968 ]. The class given is functional.
A short description of experiment [12]: T. cruzi infection blockers in NIH3T3 cells – beta-gal luminescence, NIH3T3 host cells, confirmation (AID 2630). The class given is functional, cell-based. The following applies: Mus musculus.
Experiment [13] is described as follows: NIH3T3 cell viability loss – ATP luminescence, mouse fibroblasts, counter-screen, dose response (AID 2010).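 Also: cells exposed to compound for about 90 hours before reading.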 The class given is functional, cell-based.
The next experiment can be described thus: cells. It is filed as functional.

The structures appear in SMILES notation. Calls of active or inactive are those of the source.

One may read the EC50 as the concentration that produces a half-maximal response. For orientation: AC50 means the concentration giving half of the maximal activity seen. One may read the IC50 as the midpoint of a concentration-inhibition curve.

With `COc1ccc(C(CCNC(C)c2ccccc2)c2ccc(F)cc2)cc1` (stereo not given), the values for the EC50 in [1] and in experiment [2] were 9.11 µM (active) and 11.2 µM (active), respectively. The half-maximal activity concentration (AC50) in the experiment on A-375 is 13.8 µM (active); in experiment [3] it was 16.6 µM (active).

Take `Cc1ccc(CN=C(S)NC2CCC(C(C)(C)C)CC2)cc1` (stereo not given): the figures for the EC50 (in the experiment with Streptococcus; on Streptokinase A; in [5]) were > 150 µM (not active), 13.1 µM (active) and 5.46 µM (active), respectively. The IC50 in experiment [4] is > 100 µM (inactive); in [6], 48 µM (active); in [7] it was 2.35 µM (active).

`O=S(=O)(c1ccc2nc(O)oc2c1)N1CCCCC1`: the IC50 in experiment [4] was > 100 µM (inactive); in [6], 36.5 µM (active); in experiment [7] it was 1.67 µM (active).

For the molecule `CCO[C@H]1OC(C(=O)NCc2nc3ccccc3[nH]2)=C[C@@H](C2CC2)[C@@H]1CCCO`, the IC50 in experiment [8] was > 80 µM (inactive).

Consider `CC(C)(C)OC(=O)N/N=C\c1ccc([N+](=O)[O-])s1`, for which the EC50 was 2.7 µM (active) in experiment [9]; > 195 µM (not active) in experiment [10]; 2.46 µM (active) in experiment [11]; 2.46 µM (active) in experiment [12]; > 60 µM (not active) in experiment [13]. Further, the IC50 in the experiment “cells” was 27.3 µM (active).

The values above are taken from ChEMBL document CHEMBL1201862, “PubChem BioAssay data set” (2004).
